In US20030187261A1, “Purine derivatives, process for their preparation and use thereof” (priority 2000, published 2003):
Blank lines part the entries; values can stand above or below the molecule they belong to.

How the values were obtained:
[1] = target: T1, CDC2 (Homo sapiens, UniProt P06493); assay: p34cdc2 (CDC2) kinase inhibition assay, histone H1 substrate; type: biochemical
T1 construct: made in house; host or cells: Sf9 insect cells, baculovirus co-infection
Description: Cyclin-dependent kinases (p34^cdc2, p33^cdk2, p33^cdk4 and cyclins (cyclin B, E and DI) are produced in Sf9 insect cells coinfected with appropriate baculoviral constructs. The cells are harvested 68-72 hrs post infection in lysis buffer for 30 min on ice and the soluble fraction is recovered by centrifugation at 14.000 g for 10 min. The protein extract is stored at −80° C.
To carry out experiments on kinetics under linear conditions, the final point test system for kinase activity measurement is used. The kinase is added to the reaction mixture in such a way that linear activity is obtained with respect to the concentration of enzyme and with respect to time.
Inhibition of p33^cdk4 kinase is determined with Rb-GST (0.2 mg/ml) as the substrate. Kinase activity is determined at 30° C. in kinase buffer.
Tested compounds are usually dissolved to 100 mM solutions in DMSO, the final concentration of DMSO in reaction mixture never exceeds 1%. The controls contain suitable dilutions of DMSO. After 10 min, the addition of 3×SDS sample buffer stops the incubations. […] The measurement of kinase activity is done using digital image analysis. The kinase activity is expressed as a percentage of maximum activity, the apparent inhibition constants are determined by graphic analysis. Kinase buffer: 50 mM Hepes pH 7.4, 10 mM MgCl21 5 mM EGTA, 10 mM 2-glycerolphosphate,

[2] = target: IκB-α; assay: IκB-α kinase-inhibitory activity; type: biochemical
From the text: Modification of 2,6,9-trisubstituted purines by a catechol-like substituent at R6 leads to an increase in cdk inhibitory activity of the tested compounds.

[3] = system: B16 melanoma; assay: MTT cytotoxicity assay, B16; type: cell-based, mouse; details: 72 hours (TCS50 in the method)
From the text: (§1) One of the parameters used as the basis for colorimetric assays is the metabolic activity of viable cells. For example, a microtiter assay, which uses the tetrazolium salt MTT, is now widely used to quantitate cell proliferation and cytotoxicity. For instance, this assay is used in drug screening programs and in chemosensitivity testing. Because only metabolically active cells cleave tetrazolium salts, these assays detect viable cells exclusively. In the case of MTT assay, yellow soluble tetrazolium salt is reduced to coloured water-insoluble formazan salt. After it is solubilized, the formazan formed can easily and rapidly be quantified in a conventional ELISA plate reader at 570 nm (maximum absorbance). The quantity of reduced formazan corresponds to number of vital cells in the culture. Human T-lymphoblastic leukemia cell line CEM; promyelocytic HL-60 and monocytic U937 leukemias; breast carcinoma cell lines MCF-7, BT549, MDA-MB-231; glioblastoma U87MG cells; cervical carcinoma cells HELA; sarcoma cells U20S and Saos2; hepatocellular carcinoma HepG2; mouse immortalized bone marrow macrophages B2.4 and B10A.4; P388D1 and L1210 leukemia; B16 and B16F10 melanomas were used for routine screening of the compounds according to the invention. The cells were maintained in Nunc/Corning 80 cm^2 plastic tissue culture flasks and cultured in cell culture medium (DMEM with 5 g/l glucose, 2 mM glutamine, 100 U/ml penicillin, 100 μg/ml streptomycin, 10% fetal calf serum and sodium bicarbonate).
(§2) The cell suspensions that were prepared and diluted according to the particular cell type and the, expected target cell density (2500-30000 cells per well based on cell growth characteristics) were added by pipette (80 μl) into 96-well microtiter plates. Inoculates were allowed a pre-incubation period of 24 hours at 37° C. and 5% CO2 for stabilisation. Four-fold dilutions of the intended test concentration were added at time zero in 20 μl aliquots to the microtiter plate wells. Usually, test compound was evaluated at six 4-fold dilutions. In routine testing, the highest well concentration was 266.7 μM, but it can be the matter of change dependent on the agent. All drug concentrations were examined in duplicates. Incubations of cells with the test compounds lasted for 72 hours at 37° C., in 5% CO2 atmosphere and 100% humidity. At the end of incubation period, the cells were assayed by using the MTT. Ten microliters of the MTT stock solution were pipetted into each well and incubated further for 1-4 hours. After this incubation period, formazan was solubilized by addition of 100 μl/well of 10% SDS in water (pH=5.5) followed by further incubation at 37° C. overnight. The optical density (OD) was measured at 540 nm with the Labsystem iEMS Reader MF (UK). The tumour cell survival (TCS) was calculated using the following equation: TCS=(ODdrug exposed well/mean ODcontrol wells)×100%. The TCS50 value, the drug concentration lethal to 50% of the tumour cells, was calculated from the obtained dose response curves.
(§3) The cytoxicity of novel compounds was tested on panel of cell lines of different histogenetic and species origin (Table 7). Equal activities were found in all tumour cell lines tested. […] Importantly, this observation distinguishes the purine derivatives of the invention from flavopiridol and related compounds, as their biological activity is dependent on p53 status.

[4] = system: T-lymphoblastic leukemia cell line CEM; assay: MTT cytotoxicity assay, CEM; type: cell-based, human; details: 72 hours (TCS50 in the method)
From the text: as §1, §2, §3

[5] = system: normal human lymphocytes; assay: concanavalin A induced lymphocyte proliferation, [3H]-TdR incorporation; type: cell-based; details: 72 hours, read-out: ED50 (the source's name)
Description: Human heparinized peripheral blood was obtained from healthy volunteers by cubital vein punction. The blood was diluted in PBS (1:3) and mononuclear cells were separated by centrifugation in Ficoll-Hypaque density gradient (Pharmacia, 1.077 g/ml) at 2200 rpm for 30 minutes. Following centrifugation, lymphocytes were washed in PBS and resuspended in cell culture medium (RMPI 1640, 2 mM glutamine, 100 U/ml penicillin, 100 μg/ml streptomycin, 10% fetal calf serum and sodium bicarbonate).
The cells were diluted at target density of 1100000 cells/ml and were added by pipette (180 μl) into 96/well microtiter plates. Four-fold dilutions of the intended test concentration were added at time zero in 20 μl aliquots to the microtiter plate wells. Usually, test compound was evaluated at six 4-fold dilutions. In routine testing, the highest well concentration was 266.7 μM. All drug concentrations were examined in duplicates. All wells with exception of unstimulated controls were activated with 50 μl of concanavalin A (25 μg/ml). Incubations of cells with test compounds lasted for 72 hours at 37° C., in 5% CO2 atmosphere and 100% humidity. At the end of incubation period, the cells were assayed by using the [^3H]-TdR:
Cell cultures were incubated with […] (20 μl of stock solution 500 μCi/ml) per well for 6 hours at 37° C. and 5% CO2. The automated cell harvester was used to lyse cells in water and adsorb the DNA onto glass-fiber filters in the format of microtiter plate. The DNA incorporated [^3H]-TdR was retained on the filter while unincorporated material passes through. The filters were dried at room temperature overnight, sealed into a sample bag with 10-12 ml of scintillant. The amount of [^3H]-TdR present in each filter (in cpm) was determined by scintillation counting in a Betaplate liquid scintillation counter. The effective dose of immunosuppressant (ED) was calculated using the following equation: ED=(cpmdrug exposed well/mean cpmcontrol wells)×100%. The EDs50 value, the drug concentration inhibiting proliferation of 50% of lymphocytes, was calculated from the obtained dose response curves.
To evaluate immunosuppressive activity of substituted adenines, their ability to inhibit polyclonal mitogen induced proliferation of normal human lymphocytes was analyzed (Table 8). […] Effective immunosuppressive dose of new derivatives under in vitro conditions was close to 1-20 μM.

[6] = system: T-lymphocyte leukemia Molt3 cell line; assay: cell growth of Molt3 cell line, flow cytometric cell count; type: cell-based, human; details: Homo sapiens, MOLT-3; 96 hours of culture
Description: Cell lines: Human leukemic cell lines were obtained from the American Type Culture Collection (ATCC, Rockville, Md., USA). They were cultured in Iscove's Modified Dulbecco's Medium (IMDM) supplemented with 10% heat inactivated fetal calf serum (FCS), 200 U/ml penicillin, 200 μg/ml streptomycin and 1 μg/ml amphotericin B. Cells were cultured in a 5% CO2-95% air fully humidified incubator. For effects on clonogenic output, 1000 cells/well were plated in duplicate in methylcellulose (0.9%), supplemented with 20% FCS and cultured for 14 days.
(§4) Cells were plated at 10000 per well in 200 μl IMDM medium and incubated with 0-50 μM of the compounds of the invention (Table 5), by addition of the drugs directly to the culture medium and incubated at 37° C. for 96 hours. Absolute cell number was determined by addition of a known concentration of Fluoresbrite microspheres (FITC) (Polysciences, Inc.). The absolute number of cells per well was calculated as: {(total number of beads added per well)/(number of beads measured)}×(number of measured cells in the gate of interest). All analyses were performed with a FACScan (BD), using CELLQuest software (Becton Dickinson).
The response of the myeloid leukemia KG1 and T-lymphocyte leukemia Molt3 cell lines to the cytostatic effect of the novel compounds was determined using the above-mentioned standardized bead suspension that was used to determine the absolute cell number by flow cytometric (FCM) measurement. Cells were grown in the presence of increasing concentrations of the compounds of the invention.

[7] = system: adult bone marrow CD34+CD38- cells; assay: pre-CFU assay; type: cell-based, human; details: Homo sapiens, 336 h; 14 day liquid culture, total clonogenic output after secondary methylcellulose culture
From the text: […]. Cells with low-to-medium forward and low side scatter, highly positive green (CD34) fluorescence, and an orange (CD38) fluorescence signal lower than the mean fluorescence of cells labeled with an irrelevant isotype-matched control antibody+2 standard deviations were retained as CD34^+CD38^− cells and used in pre-CFU assays.
Pre-CFU assays were initiated by performing liquid cultures of CD34^+CD38^− cells in duplicate in 96-well flat-bottomed plates in IMDM/10% FCS, 1% bovine serum albumin (BSA), 100 U/ml IL-1, 200 U/ml IL-6, 30 U/ml IL-3 and 100 ng/ml stem cell factor (SCF). Pre-CFU cultures were initiated with 500 CD34^+CD38^− cells/well (200 μl). After 14 days of culture at 37° C. in 7.5% O2 and 5% CO2 in a fully humidified incubator, the number of cells in each well was counted. Subsequently, the cells were harvested, washed three times in IMDM/10% FCS, and plated in duplicate at 500 cells/well (1000 μl) in secondary methylcellulose CFU cultures as described for CFU assays.
Pre-CFU were cultured starting from adult bone marrow CD34^+CD38^− cells, that had been isolated using the FCM cell sorter. Novel compounds were added at different concentrations to the primary 14 day liquid culture. IC50 was calculated from dose-response curves from total clonogenic output after secondary methylcellulose culture (Table 5).

[8] = system: CD34+ hematopoietic progenitors (HPC) from adult bone marrow; assay: myeloid colony-forming unit (CFU) assay; type: cell-based, human
[9] = system: myeloid leukemia KG1 cell line; assay: cell growth of KG1 cell line, flow cytometric cell count
[10] = system: PHA-stimulated lymphocytes (PBMC); assay: cell number of PHA-stimulated lymphocytes (PBMC), flow cytometry; type: cell-based, human; details: Homo sapiens, Lymphocyte; 96 hours, in the presence of IL-2; read-out: Lymphocytes IC50
Description: Human peripheral blood mononuclear cells were isolated by density gradient (Ficoll-Hypaque) (LSM, ICN Biomedicals Inc.). PBMC were stimulated with 5 μg/ml phytohemaglutinin A (PHA) (Sigma) during 24-48 hours in IMDM supplemented with 10% FCS (IMDM/10% FCS) at 37° C. After washing off the PHA, PBMC were incubated with interleukin-2 (IL-2) (10 U/ml) (Genzyme).
as §4
The novel compounds were tested for cytotoxicity on PHA-stimulated lymphocytes (PBMC), as one of the normal counterparts of the cell lines. Cells were grown for 96 hours in the presence of IL-2 and different concentrations of the novel compounds and cell number was counted on the flow cytometer.

[11] = system: β-adrenergic receptors; assay: isoproterenol-induced intracellular cAMP synthesis in rat C6 glioma; type: cell-based; details: cAMP induced by 5 μM (−) isoproterenol, 30 min; for Effect: rat C6 glioma; for IC50: read-out: I50
Description: Rat C6 glioma (ATCC N° CCL107) was cultivated in monolayer in serum-free chemically defined medium containing Ham's F10/minimal essential medium (1:1 vol/vol), 2 mM L-glutamine, 1% (vol/vol) minimal essential medium vitamins (100×), 1% (vol/vol) minimal essential medium nonessential amino acids (100×), 100 U/ml penicillin, 100 μg/ml streptomycin and 30 nM sodium selenite. Incubation was at 37° C. in a humidified atmosphere. Assays were performed in the logaritmic growth phase at a density of 2.5×10^5 cells/cm^2. Intracellular cAMP synthesis was induced by addition of 5 μM (−) isoproterenol. After 30 min incubation at 37° C. the medium was removed and the cellular amount of cAMP determined using the cAMP-enzyme immunoassay kit of Amersham. The IC50 is determined from a dose-response curve in duplicate. The effect of seven purine-analogs was measured after simultaneous addition with isoproterenol.
As P2Y1-like and A2 purinergic receptors, negatively and positively coupled to adenylate cyclase respectively, are present on rat C6 glioma the modulation of the synthesis of cAMP may be due to inhibition of the activation of β-adrenergic receptors by isoproterenol or to activation of purinergic receptors.

[12] = system: HIV-2; assay: anti-HIV-2 activity in CEM cells; type: cell-based
Description: The infected cell cultures were incubated at 37° C. for 5 days in a humidified CO2 incubator. The cytopathicity of the virus was examined by determination of MT-4 cell viability by trypan blue dye staining.

T1 sequence (P06493 whole entry, species assumed): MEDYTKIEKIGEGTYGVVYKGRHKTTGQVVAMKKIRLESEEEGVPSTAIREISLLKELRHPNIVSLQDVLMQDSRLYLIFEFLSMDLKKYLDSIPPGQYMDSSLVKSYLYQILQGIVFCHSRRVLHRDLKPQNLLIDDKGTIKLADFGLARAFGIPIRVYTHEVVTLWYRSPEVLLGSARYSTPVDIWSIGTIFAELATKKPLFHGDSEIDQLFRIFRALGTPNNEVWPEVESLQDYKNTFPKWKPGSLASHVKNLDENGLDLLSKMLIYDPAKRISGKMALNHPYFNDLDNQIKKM
T1 sequence (P14635 whole entry partner, species assumed): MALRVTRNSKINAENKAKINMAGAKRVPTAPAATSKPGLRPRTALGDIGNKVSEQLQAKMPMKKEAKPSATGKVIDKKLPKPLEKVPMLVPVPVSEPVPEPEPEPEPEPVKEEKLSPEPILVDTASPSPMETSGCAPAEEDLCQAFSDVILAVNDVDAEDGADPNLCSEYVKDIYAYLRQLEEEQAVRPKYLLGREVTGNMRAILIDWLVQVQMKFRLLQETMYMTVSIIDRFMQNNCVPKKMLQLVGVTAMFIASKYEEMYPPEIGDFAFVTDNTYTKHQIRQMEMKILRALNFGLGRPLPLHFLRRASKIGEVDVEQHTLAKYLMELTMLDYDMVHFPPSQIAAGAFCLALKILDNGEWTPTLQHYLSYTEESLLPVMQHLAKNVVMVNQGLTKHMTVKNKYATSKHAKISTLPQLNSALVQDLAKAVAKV

Structure (SMILES): CC(C)[C@H](CO)Nc1nc(NCc2ccc(O)c(O)c2)c2ncn(C(C)C)c2n1
IC50 ([1]; Table 3, unit nM): 250 nM
IC50 ([2]; Table 3, unit nM): 320 nM

Structure (SMILES): CC(C)[C@H](CO)Nc1nc(N(C)CCc2ccc(O)c(O)c2)c2ncn(C(C)C)c2n1
IC50 ([1]; Table 3, unit nM): 390 nM
IC50 [3]: 9 µM
IC50 ([2]; Table 3, unit nM): 460 nM
IC50 [4]: 8 µM
EC50 [5]: 0.54 µM

Structure (SMILES): CC(C)[C@H](CO)Nc1nc(NC(CO)c2ccccc2)c2ncn(C(C)C)c2n1 (some centres unmarked)
IC50 ([1]; Table 3, unit nM): 540 nM
IC50 ([2]; Table 3, unit nM): 670 nM

Structure (SMILES): Cn1cnc2c(NCc3ccc(O)c(O)c3)nc(NCCO)nc21
IC50 ([1]; Table 3): 4200 nM
IC50 ([2]; Table 3): 10800 nM

Structure (SMILES): CC[C@H](CO)Nc1nc(NCc2ccc(O)c(O)c2)c2ncn(C(C)C)c2n1
IC50 [3]: 9 µM
IC50 ([2]; Table 3): 1250 nM
IC50 [4]: 8 µM

Structure (SMILES): CC[C@H](CO)Nc1nc(NC(CO)c2ccccc2)c2ncn(C(C)C)c2n1 (some centres unmarked)
IC50 [3]: 13.5 µM
IC50 ([2]; Table 3): 2150 nM
IC50 [4]: 15 µM
EC50 [5]: 12 µM

Structure (SMILES): Cn1cnc2c(NC(CO)c3ccccc3)nc(NCCO)nc21 (racemic)
IC50 ([1]; Table 3): 5600 nM
IC50 ([2]; Table 3): 13700 nM

Structure (SMILES): Nc1nc(NCc2ccccc2)c2ncn(CCOCP(=O)(O)O)c2n1 [PME-derivatives: Benzylamino, reference compound]
HIV-2 CEM IC50 [12]: >20 µg/mL

Continued, in another order:

IC50 ([1]; Table 5, CDC2 activity in cell free system): 21000 nM
IC50 [6]: 19.3 ± 2.3 µM
IC50 [7]: 20 µM
IC50 ([8]; Homo sapiens, 336 h, 14 days, methylcellulose, total colony output): 37 µM
IC50 ([9]; Homo sapiens, KG-1, 96 h, read-out: KGI IC50): 16 ± 1.7 µM
Effect [11]: inhibition
IC50 [11]: 45 ± 5 µM
Structure (SMILES): CC(C)n1cnc2c(NCc3ccccc3)nc(NCCCN)nc21 [P12, 2-(3-aminopropylamino)-6-benzylamino-9-isopropylpurine]
output of the different types of myeloid colonies (CFU-E, CFU-G and CFU-M) ([8]; scored differentially): significantly lower colony output
cell number after 6 hours of exposure, wash and 7 days in drug-free medium ([9]; KG1, compared to control without novel compounds): (some) recovery of cell number
CC50 [10]: 8 ± 1.2 µM

Effect [11]: inhibition
IC50 [11]: 45 ± 5 µM
Structure (SMILES): CC(C)C(CO)Nc1nc(NCc2ccccc2)c2ncn(C(C)C)c2n1 (centres unmarked) [P30]

Effect [11]: inactive
Structure (SMILES): CC[C@@H](CO)Nc1nc(N[C@@H](CO)c2ccccc2)c2ncn(C(C)C)c2n1 [P38]

Effect [11]: inactive
Structure (SMILES): CC(O)CNc1nc(NC(CO)c2ccccc2)c2ncn(C(C)C)c2n1 (centres unmarked) [P39]
